Assay results as given in patent publication US4208520A, “7-(Substituted)-7H-pyrrolo[3,2-f]quinazoline-1,3-diamines” (American Home Products Corporation, priority 1978, dated 1980).
Values after ≈ are worked out from the molar mass of the structure shown. Read-outs that look alike come from different tables or passages of the source.

Assays:
[1] = system: E. coli 9637; test: In vitro antibacterial activity (minimal inhibitory concentration, agar dilution); assay type: cell-based
Procedure: (§1) The compounds have shown activity in vitro against one or more of the following strains of bacteria: S. aureus Smith, S. aureus 53-180, N. catarrhalis 8193, E. coli 9637, S. paratyphi 11737, K. pneumoniae 10031, or P. vulgaris 6896.
(§2) A stock solution or suspension of the test compound at a concentration of 2500 μg/ml. is prepared utilizing a suitable solvent or medium such as aqueous sodium hydroxide, aqueous lactic acid, methyl cellosolve, dimethylsulfoxide, dimethylacetamide, ethylene glycol, dimethylformamide, formamide, propylene glycol, acetone or methanol. Two-fold dilutions are made by adding appropriate amounts of sterile water to the solution or suspension of the test substance. One ml. quantities of each dilution are incorporated into Wellcotest Sensitivity Test Agar fortified with 5% hemolyzed horse blood (9 ml. vol.) in sterile Petri dishes to give plates containing varying concentrations of the test compound. The hardened surfaces of each plate are incubated with the test organism, and the plates are incubated for 18 hours at 35° C.

[2] = system: S. aureus Smith; test: as above; assay type: cell-based; settings: Staphylococcus aureus
Procedure: as §1, §2

[3] = system: K. pneumoniae 10031; test: as above; assay type: cell-based
Procedure: as §1, §2

[4] = system: N. catarrhalis 8193; test: as above; assay type: cell-based; settings: Wellcotest Sensitivity Test Agar with 5% hemolyzed horse blood, 18 hours at 35° C.
Procedure: as §1, §2

[5] = system: S. paratyphi 11737; test: as above; assay type: cell-based; settings: Salmonella enterica, Wellcotest Sensitivity Test Agar with 5% hemolyzed horse blood, 18 hours at 35° C.
Procedure: as §1, §2

[6] = system: S. aureus 53-180; test: as above; assay type: cell-based
Procedure: as §1, §2

[7] = system: P. vulgaris 6896; test: as above; assay type: cell-based
Procedure: as §1, §2

[8] = system: Staphylococcus aureus CHP; test: In vivo antibacterial synergism with sulfomethoxazole (mouse protection test); settings: CD-1 mice; for ED50: po, single dose, alone, treated immediately after infecting, read-out: PD50
Procedure: (§3) The test agent is weighed, suspended in 0.5% aqueous carboxymethyl cellulose, hemogenized (glass tissue grinder) and diluted according to the design of the experiment. Mice (male, 18±1 g., CD-1 strain) are pre-weighed, pooled, infected at random intraperitoneally with a 0.5 ml. standardized suspension (LD95 ±5%) of the bacterial organism in 5% gastric mucin and treated at random with single doses of the test agents either at the time of infection or six hours after infecting. The treated groups consist of ten mice per dosage level. Deaths are recorded daily for 14 days and the PD50 (mice are treated at time of infection) and CD50 (mice are treated six hours after infecting) values are calculated by the method of Reed and Muench [Amer. J. Hyg., 27, (1938)].

[9] = system: Escherichia coli (E-3); test: as above; settings: E. coli (E-3), CD-1 mice; for ED50: Escherichia coli, po, single dose, alone, treated immediately after infecting, read-out: PD50
Procedure: as §3

[10] = system: Escherichia coli (E-2); test: as above; settings: E. coli (E-2), CD-1 mice; for ED50: Escherichia coli, po, single dose, alone, treated immediately after infecting, read-out: PD50
Procedure: as §3

[11] = system: bacterial infections; test: Potentiation of sulfa drug against bacterial infections in mice, oral; assay type: in vivo, mouse; settings: oral route of administration in mice
Procedure: The invention also provides compounds which will potentiate the antibacterial effects of sulfa drugs.
as §3

[12] = Escherichia coli, E. coli 9637, Wellcotest Sensitivity Test Agar with 5% hemolyzed horse blood, 18 hours at 35° C., read-out: MIC
[13] = Klebsiella pneumoniae, 10031, 18 h
[14] = Staphylococcus aureus, 53180, 18 h
[15] = S. aureus Smith, Wellcotest Sensitivity Test Agar with 5% hemolyzed horse blood, 18 hours at 35° C., read-out: MIC
[16] = Klebsiella pneumoniae, K. pneumoniae 10031, Wellcotest Sensitivity Test Agar with 5% hemolyzed horse blood, 18 hours at 35° C., read-out: MIC
[17] = Proteus vulgaris, P. vulgaris 6896, Wellcotest Sensitivity Test Agar with 5% hemolyzed horse blood, 18 hours at 35° C., read-out: MIC
[18] = Staphylococcus aureus, 53180, S. aureus 53-180, Wellcotest Sensitivity Test Agar with 5% hemolyzed horse blood, 18 hours at 35° C., read-out: MIC
[19] = p.o., Cpd. dose in combination with SM
[20] = p.o., SM dose in combination with Cpd.

Compound | MIC [1, 12] [mg/L] | MIC ([2]; 18 h) [mg/L] | MIC [4] [mg/L] | MIC [5] [mg/L] | MIC [6, 14] [mg/L] | MIC [2, 15] [mg/L] | MIC [3, 16] [mg/L] | MIC [7, 17] [mg/L] | MIC [6, 18] [mg/L] | other results
Nc1nc(N)c2c(ccc3c2ccn3Cc2ccc(Cl)cc2Cl)n1 [Example 2, 7-[(2,4-Dichlorophenyl)methyl]-7H-pyrrolo[3,2-f]quinazoline-1,3-diamine] | 3.9 (≈ 10.9 µM) | 0.976 (≈ 2.72 µM) | 0.0038 (≈ 0.0106 µM) | 31.3 (≈ 87.4 µM) | 0.488 (≈ 1.36 µM) | – | – | – | – | MIC [3, 13]: 0.488 mg/L (≈ 1.36 µM)
CC(=O)c1cccc(Cn2ccc3c4c(N)nc(N)nc4ccc32)c1 [Example 3] | 0.244 (≈ 0.736 µM) | – | – | 0.976 (≈ 2.95 µM) | – | 0.122 (≈ 0.368 µM) | 0.031 (≈ 0.0935 µM) | 3.9 (≈ 11.8 µM) | 0.061 (≈ 0.184 µM) | –
COC(=O)c1cccc(Cn2ccc3c4c(N)nc(N)nc4ccc32)c1 [Example 4] | 1.95 (≈ 5.61 µM) | 0.976 (≈ 2.81 µM) | – | 31.3 (≈ 90.1 µM) | – | – | 0.244 (≈ 0.702 µM) | 125 (≈ 360 µM) | 0.122 (≈ 0.351 µM) | –
CC(C)OC(=O)c1ccc(Cn2ccc3c4c(N)nc(N)nc4ccc32)cc1 [Example 6] | 15.6 (≈ 41.6 µM) | 0.488 (≈ 1.3 µM) | 0.122 (≈ 0.325 µM) | 62.5 (≈ 166 µM) | 0.488 (≈ 1.3 µM) | – | – | 125 (≈ 333 µM) | – | MIC [3, 13]: 0.488 mg/L (≈ 1.3 µM)
CCCC(C)OC(=O)c1ccc(Cn2ccc3c4c(N)nc(N)nc4ccc32)cc1 (stereo not drawn) [Example 7] | – | – | 7.81 (≈ 19.4 µM) | – | – | 15.6 (≈ 38.7 µM) | 15.6 (≈ 38.7 µM) | – | 7.81 (≈ 19.4 µM) | –
COC(=O)c1ccc(Cn2ccc3c4c(N)nc(N)nc4ccc32)cc1 [Example 8] | – | 31.3 (≈ 90.1 µM) | – | 250 (≈ 720 µM) | 7.81 (≈ 22.5 µM) | – | 15.6 (≈ 44.9 µM) | – | – | MIC ([1]; Escherichia coli, 9637, 18 h): 62.5 mg/L (≈ 180 µM); MIC ([7]; Proteus vulgaris, 6896, 18 h): 250 mg/L (≈ 720 µM)
Nc1nc(N)c2c(ccc3c2ccn3Cc2ccc(O)cc2)n1 [Example 9, 7-[(4-Hydroxyphenyl)methyl]-7H-pyrrolo[3,2-f]quinazoline-1,3-diamine] | – | 0.488 (≈ 1.6 µM) | – | 3.9 (≈ 12.8 µM) | 0.488 (≈ 1.6 µM) | – | 0.244 (≈ 0.799 µM) | – | – | MIC ([1]; Escherichia coli, 9637, 18 h): 0.976 mg/L (≈ 3.2 µM); MIC ([7]; Proteus vulgaris, 6896, 18 h): 250 mg/L (≈ 819 µM)
Nc1nc(N)c2c(ccc3c2ccn3-c2ccncc2)n1 [Example 10, 7-(4-Pyridinyl)-7H-pyrrolo-[3,2-f]quinazoline-1,3-diamine] | 0.244 (≈ 0.883 µM) | – | 0.0152 (≈ 0.055 µM) | 0.976 (≈ 3.53 µM) | – | 0.448 (≈ 1.62 µM) | – | – | 0.224 (≈ 0.811 µM) | PD50 of Cpd. in combination SM/Cpd. [8, 19]: 7.28 mg. per kg.; ED50 [8]: > 400 mg/kg; ED50 [9]: 313 mg/kg; PD50 of Cpd. in combination SM/Cpd. [9, 19]: 6.25 mg. per kg.; ED50 [10]: > 400 mg/kg; PD50 of Cpd. in combination SM/Cpd. [10, 19]: 1.20 mg. per kg.; MIC [3, 13]: 0.976 mg/L (≈ 3.53 µM); MIC ([7]; Proteus vulgaris, 6896, 18 h): 62.5 mg/L (≈ 226 µM); synergistic effect with sulfamethoxazole against bacterial infections [11]: gave a synergistic effect with sulfamethoxazole against bacterial infections
Cc1ccnc(-n2ccc3c4c(N)nc(N)nc4ccc32)c1 [Example 11] | 3.9 (≈ 13.4 µM) | 3.9 (≈ 13.4 µM) | 0.0152 (≈ 0.0524 µM) | 7.81 (≈ 26.9 µM) | 0.976 (≈ 3.36 µM) | – | 0.244 (≈ 0.84 µM) | 15.6 (≈ 53.7 µM) | – | –
Nc1nc(N)c2c(ccc3c2ccn3-c2ccc(C(F)(F)F)cc2)n1 [Example 12] | – | 31.3 (≈ 91.2 µM) | – | – | 31.3 (≈ 91.2 µM) | – | 3.9 (≈ 11.4 µM) | – | – | MIC ([1]; Escherichia coli, 9637, 18 h): 250 mg/L (≈ 728 µM)
NC(=O)c1ccc(-n2ccc3c4c(N)nc(N)nc4ccc32)cc1 [Example 13] | – | – | – | – | 7.81 (≈ 24.5 µM) | 1.95 (≈ 6.13 µM) | 0.976 (≈ 3.07 µM) | – | – | –
Cc1cc(NS(=O)(=O)c2ccc(N)cc2)no1 [SM, sulfomethoxazole, reference compound] | – | – | – | – | – | – | – | – | – | PD50 of SM in combination SM/Cpd. [8, 20]: 50 mg. per kg.; ED50 [8]: 259 mg/kg; ED50 [9]: 28.1 mg/kg; PD50 of SM in combination SM/Cpd. [9, 20]: 12.5 mg. per kg.; ED50 [10]: 25 mg/kg; PD50 of SM in combination SM/Cpd. [10, 20]: 5.25 mg. per kg.
